Series [1] relates to HIV-1 (96USHIPS7 strain). The experiment in a line: HIV attachment assay in PBMCs (cell-associated p24). The class given is cell-based. As to conditions: time 0 h. The protocol:
ELISA kits were purchased from Coulter Electronics. The assay was performed according to the manufacturer's instructions. Control curves were generated in each assay to accurately quantitate the amount of p24 antigen in each sample. For experiments using cell lysates. Fifty thousand (5×10^4) viable cells were lysed in Coulter ELISA buffer and subjected to 1 round of freeze/thawed to liberate trapped p24 and p24 detected per manufacturers instructions. HIV capsid protein (p24) was quantitated spectrophotometrically at 450 nm using a Molecular Devices Vmax plate reader using a standard curve. Final concentrations were calculated from the optical density values using the Molecular Devices Soft Max software package.
The attachment assay with PBMCs was performed as follows. Briefly, 1×10^6 PHA/IL-2 PBMCs were incubated for 0, 2, 4 and 24 hours with IMG compounds and cannabidiol in polypropylene tubes. A pre-titered amount of HIV-1 (96USHIPS7 strain, obtained from the AIDS Research and Reference Reagent Program ) was added in the presence of compound and incubated for 3 h at 37° C. After incubation the cultures were washed 3 times (400×g, 10 min, 4° C.) with media (1:25,000 dilution of input p24), the cell pellets lysed with p24 lysing buffer (Coulter) and p24 content determined by ELISA.
PBMCs pretreated with compounds for 0, 2, 4, and 24 were incubated with cell-free HIV-1 for 3 h and the excess unbound HIV removed. The assessed the amount of HIV bound to the cell was then assessed by measuring cell-associated p24 content of total cell lysates.

Series [2] concerns HIV-1 strain RoJo. Kind of series: PBMC time of addition assay (RT activity in supernatant at 6 days). In kind it is cell-based. As to conditions: for IC50: read-out: IC50. The source says: (§1) Human peripheral blood mononuclear cells (PBMCs) from a minimum of 2 donors, that have been blasted with PHA and IL-2, were counted, viability determined by Trypan Blue dye exclusion and mixed in equal ratios. Pooled donors were used to minimize the variability observed between individual donors which results from quantitative and qualitative differences in HIV infection and overall response to the PHA and IL-2 of primary lymphocyte populations. The cells were resuspended at 1×10^6 cells /mL in RPMI 1640 without phenol red supplemented with 15% Fetal Bovine Serum (heat inactivated), 2 mM L-glutamine, 100 U/mL penicillin, 100 μg/mL streptomycin, 10 μg/mL gentamycin and IL-2 (20 U/mL, R&D Systems, Minneapolis, Minn.). Fifty microliters of cells were then distributed to the inner 60 wells of a 96 well round bottom microtiter culture plate in a standard format developed by the Infectious Disease Research department of Southern Research Institute. Each plate contains cell control wells (cells only), virus control wells (cells plus virus), and experimental wells (drug plus cells plus virus). Alternatively, cells were cultured in T25 cm^2 or T75 cm^2 tissue culture flasks at a starting density of 1×10^6 cells per ml. Serially diluted compounds were added to the microtiter plate or tissue culture flask followed by the appropriate pre-titered strain of HIV-1. For virus replication inhibition experiments the HIV-1 strain RoJo was used. This is a low passage presumable subtype B pediatric isolate with a syncytium inducing (SI) phenotype in MT-2 cells isolated by Southern Research Institute personnel. All samples were assayed in triplicate where possible with an accompanying determination of compound toxicity. The final volume per well in the microtiter plates was 200 μL. The final volume in the tissue culture flask varied depending upon experimental design and flask size. Assays were incubated for 6 days in a humidified atmosphere at 37° C., 5% CO^2, after which supernatants were collected, for analysis of RT activity and cell viability by MTS dye reduction. Culture were also examined microscopically, any abnormalities noted, and in the case of tissue culture flasks cell counts and viability determined by Trypan Blue Dye exclusion.
(§2) Time of addition assays were performed with PBMCs in two ways. For both assays, PBMCs were isolated and cultured under the conditions as described above. Time of addition assays were carried out in either a tissue culture flask format (T-75 cm^2) or in microtiter wells. In both cases due to the lack of plastic adherence and heterogeneity of the PBMC population for susceptibility to infection, it was not possible to use complete removal of virus following a timed adsorption to synchronize the infection and limit the assay to a single round of infection. Therefore, serial washing by partial removal of the media was used to reduce the concentration of virus and compound (if required) in the assay. Compound addition in relationship to antiviral activity was either assessed over a short addition interval immediately before or after virus addition or for up to 72 h post infection. For all assays virus replication was assessed at 6 days of culture by determining RT expression in cell-free supernatants. In the tissue culture flask format cells were counted and Trypan Blue Dye exclusion used to monitor compound cytotoxicity. Cell viability in the 96 well microtiter plate format was determined by MTS dye reduction. AZT was used as a positive control.
Reverse transcriptase activity was measured in cell-free supernatants. Tritiated thymidine triphosphate (NEN) (TTP) was resuspended in distilled H2O at 5 Ci/mL. Poly rA and oligo dT were prepared as a stock solution which was kept at −20° C. The RT reaction buffer was prepared fresh on a daily basis and consists of 125 μL 1.0 M EGTA, 125 μL dH2O, 110 μL 10% SDS, 50 μL 1.0 M Tris (pH 7.4), 50 μL 1.0 M DTT, and 40 μL 1.0 M MgCl2. […]

Series [3] has as its system peripheral blood mononuclear cells (PBMCs). The experiment in a line: PBMC cell viability in time of addition assay (MTS / Trypan Blue). In kind it is cell-based, Human. Particulars: read-out: TC50 (the source's name).
Description: as §1, §2
At assay termination the assay plates were stained with the soluble tetrazolium-based dye MTS (CellTiter96® Reagent Promega) to determine cell viability and quantify compound toxicity. MTS is metabolized by the mitochondria enzymes of metabolically active cells to a soluble formazan product, allowing the rapid quantitative analysis cell viability and compound cytotoxicity. […] At termination of the assay 20 μL of MTS reagent was added per well and incubated for 4 h at 37° C. […]

Series [4] deals with IIIB strain of HIV-1. The experiment in a line: Virus attachment assay, HeLa CD4 LTR β-gal cells (Experimental Example 2). In kind it is cell-based. Particulars: virus adsorption interval 1 to 2 h. As for the experimental part:
This assay detects compounds that block virus attachment using HeLa CD4 LTR β-gal cells. HeLa CD4 LTR β-gal cells were cultured with selection antibiotics. Twenty-four h prior to initiation of the assay, the cells were trypsinized, counted and plated in a 0.2 cm well in media without selection antibiotics. At 24 h media is removed and compound in media placed on the cells and incubated for 15 min at 37° C. A known titer of the IIIB strain of HIV-1 was then added to the wells and the incubation continued for 1 to 2 h. At the end of the incubation the wells were washed 2 times with media and the culture continued for 40 to 48 h. At termination of the assay, media is removed and β-galactosidase enzyme expression determined by chemiluminescence per manufacturer's instructions (Tropix Gal-screen, Bedford Mass.). Compound toxicity is monitored on a sister plate by XTT or MTS dye reduction. All determinations are performed in triplicate with serial_Log10 dilution of the test materials.

Read-outs that look alike come from different tables or passages of the source.

The record followed here is US20030232101A1, “Topical formulations of resorcinols and cannibinoids and methods of use” (Immugen Pharmaceuticals, Inc., priority 2002, published 2003).

Turning to `Cc1ccnc2c1NC(=O)c1cccnc1N2C1CC1` [Nevirapine, reference compound], in series [1] (10 μM), the “% Control” value is 81.2%, the “pg p24” value came to 311.7 pg and the “suppression of virus attachment” value amounted to 19% suppression. The “suppression of virus attachment” value in series [1] (10 μM, listed as nevaripine) was determined as 19%.
Turning to Dextran Sulfate [reference compound], in series [1] (20 μg/ml), the “% Control” value is 57.6%, the “pg p24” value was found to be 221 pg and the “suppression of virus attachment” value is 43.4% suppression. The “suppression of virus attachment” value in series [1] (20 μg/ml, listed as dextran sulfate) turned out to be 43.4%.
The IC50 is the concentration needed to halve the response being measured. Consider `Cc1cn([C@H]2C[C@H](N=[N+]=[N-])[C@@H](CO)O2)c(=O)[nH]c1=O` [AZT, reference compound], for which, in series [2] (4 h preincubation), the enhancement of activity came out at 4.6 fold. For the same molecule, the IC50 in series [2] (addition prior to infection, pre-treatment 0 h) was found to be 1 nM; in series [2] (addition prior to infection, pre-treatment 2 h), 1 nM; in series [2] (addition prior to infection, pre-treatment 4 h), 1 nM; in series [2] (addition prior to infection, pre-treatment 24 h), 3 nM; in series [2] (treatment 6 h post), 4.6 nM; in series [2] (treatment at infection) it was 3.7 nM. In addition, the half-inhibitory concentration (IC50) in series [2] (treatment −4 h pre) worked out at 0.8 nM. The CC50 in series [3] (treatment 6 h post), in series [3] (treatment at infection) and in series [3] (treatment −4 h pre) was above 4000 nM in each case. Further, the “activity in virus attachment assay” value in series [4] was “not active”.
